The structures appear in SMILES notation.

The target in the first test is T1, Motilin Receptor (Oryctolagus cuniculus, UniProt G1T803).
T1 construct: The muscle tissue was homogenized in 10 volumes of 50 mM Tris-Cl; from tissue; host or cells: rabbit colon smooth muscle, crude membrane homogenate
T1 sequence (G1T803 1-400): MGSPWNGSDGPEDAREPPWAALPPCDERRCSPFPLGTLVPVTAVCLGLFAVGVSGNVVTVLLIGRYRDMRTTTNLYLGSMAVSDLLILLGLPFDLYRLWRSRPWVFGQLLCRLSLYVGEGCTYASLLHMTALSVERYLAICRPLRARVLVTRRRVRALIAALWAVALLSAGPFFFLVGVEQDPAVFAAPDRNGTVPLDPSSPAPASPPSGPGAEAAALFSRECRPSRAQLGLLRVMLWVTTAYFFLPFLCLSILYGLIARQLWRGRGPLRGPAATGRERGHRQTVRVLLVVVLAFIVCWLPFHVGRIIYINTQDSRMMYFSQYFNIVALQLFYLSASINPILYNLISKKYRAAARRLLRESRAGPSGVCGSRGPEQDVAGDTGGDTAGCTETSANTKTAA
The test is described as follows: Motilin receptor binding, rabbit colon membranes, 125I porcine motilin. The settings on record: rabbit colon membranes. On the set-up: Rabbit Colon % Inh / inhibition / % Inh (Rabbit colon): dose or concentration left out as unconfirmed. On the procedure: Rabbit colon was removed, dissected free from the mucosa and serosa, and diced into small pieces. The muscle tissue was homogenized in 10 volumes of 50 mM Tris-Cl, 10 mM MgCl2, 0.1 mg/ml bacitracin, and 0.25 mM Peflabloc, at pH 7.5 in a Polytron (29000 rpm, 4×15 seconds). The homogenate was centrifuged at 1000×g for 15 minutes and the supernatant discarded. The pellet was washed twice before being suspended in homogenizing buffer. The crude homogenate was resuspended through a 23 gauge needle before storing at −80° C. […] After 60 minutes at 30° C., the samples were cooled in ice, centrifuged in the cold at 13000×g for 1 minute. The pellet was washed twice with 1 ml of cold saline, the supernatant was aspirated, and the pellet at the bottom of the tube counted in a gamma counter. Non-specific binding was determined by the inclusion of 1 mM of unlabeled motilin. IC50 values were determined from Kaleidograph curves.
For `Cc1ccc(S(=O)(=O)N(CCCCC(=O)N(C)Cc2ccccc2)c2cccc(OCCN3CCOCC3)c2)cc1` [compound 20], the “Rabbit Colon % Inh” value amounted to 8%.
Take `Cc1ccc(C(=O)N(CCCCC(=O)N(C)Cc2ccccc2)c2cccc(OCCN3CCOCC3)c2)cc1` [compound 21]: the “Rabbit Colon % Inh” value was found to be 34%.
In the case of `CN(Cc1ccccc1)C(=O)CCCCN(C(=O)c1ccc(F)cc1)c1cccc(OCCN2CCOCC2)c1` [compound 22], the “Rabbit Colon % Inh” value amounted to 23%.
Turning to `O=C(CCCN(C(=O)Nc1ccccc1)c1cccc(OCCN2CCOCC2)c1)N(Cc1ccccc1)Cc1ccccc1` [compound 23], the “Rabbit Colon % Inh” value came to 48%.
Still for that read-out and setting: with `Cc1ccc(S(=O)(=O)N(CCCC(=O)N(Cc2ccccc2)Cc2ccccc2)c2cccc(OCCN3CCOCC3)c2)cc1` [compound 24] the figure was 6%; with `Cc1ccc(C(=O)N(CCCC(=O)N(Cc2ccccc2)Cc2ccccc2)c2cccc(OCCN3CCOCC3)c2)cc1` [compound 25], 23%.
Same read-out and setting: with `O=C(CCCCN(C(=O)Nc1ccccc1)c1cccc(OCCN2CCOCC2)c1)N(Cc1ccccc1)Cc1ccccc1` [compound 26] the figure was 22%.
Still for that read-out and setting: with `Cc1ccc(S(=O)(=O)N(CCCCC(=O)N(Cc2ccccc2)Cc2ccccc2)c2cccc(OCCN3CCOCC3)c2)cc1` [compound 27] the figure was 22%; with `Cc1ccc(C(=O)N(CCCCC(=O)N(Cc2ccccc2)Cc2ccccc2)c2cccc(OCCN3CCOCC3)c2)cc1` [compound 28], 13%.
As to `O=C(CCCCN(C(=O)c1ccc(F)cc1)c1cccc(OCCN2CCOCC2)c1)N(Cc1ccccc1)Cc1ccccc1` [compound 29], the “Rabbit Colon % Inh” value is given as 18%.
Still for that read-out and setting: with `CCN(Cc1ccc(C)cc1)C(=O)CCCN(C(=O)Nc1ccccc1)c1cccc(OCCN2CCOCC2)c1` [compound 30] the figure was 17%; with `CCN(Cc1ccc(C)cc1)C(=O)CCCN(c1cccc(OCCN2CCOCC2)c1)S(=O)(=O)c1ccc(C)cc1` [compound 31], 39%; with `CCN(Cc1ccc(C)cc1)C(=O)CCCN(C(=O)c1ccc(C)cc1)c1cccc(OCCN2CCOCC2)c1` [compound 32], 12%.
Same read-out and setting: with `CCN(Cc1ccc(C)cc1)C(=O)CCCN(C(=O)c1ccc(F)cc1)c1cccc(OCCN2CCOCC2)c1` [compound 33] the figure was 16%.
Turning to `CCN(Cc1ccc(C)cc1)C(=O)CCCCN(C(=O)Nc1ccccc1)c1cccc(OCCN2CCOCC2)c1` [compound 34], the “Rabbit Colon % Inh” value was found to be 7%.
Same read-out and setting: with `CCN(Cc1ccc(C)cc1)C(=O)CCCCN(c1cccc(OCCN2CCOCC2)c1)S(=O)(=O)c1ccc(C)cc1` [compound 35] the figure was 17%.
For the compound `CCN(Cc1ccc(C)cc1)C(=O)CCCCN(C(=O)c1ccc(C)cc1)c1cccc(OCCN2CCOCC2)c1` [compound 36], the “Rabbit Colon % Inh” value came out at 32%.
`CCN(Cc1ccc(C)cc1)C(=O)CCCCN(C(=O)c1ccc(F)cc1)c1cccc(OCCN2CCOCC2)c1` [compound 37]: the “Rabbit Colon % Inh” value is reported as 11%.
With `COc1cccc(C(=O)N(Cc2ccccc2)C2CCCC(CN(C(=O)Nc3ccccc3)c3cccc(OCCN4CCOCC4)c3)C2)c1` (stereo not shown) [compound 41], the “Rabbit Colon % Inh” value worked out at 58%.
Regarding `CC(C)(C)C(=O)N(Cc1ccccc1)C1CCCC(CN(C(=O)Nc2ccccc2)c2cccc(OCCN3CCOCC3)c2)C1` (stereo not shown) [compound 42], the “Rabbit Colon % Inh” value is listed as 50%.
Same read-out and setting: with `O=C(Nc1ccccc1)N(CC1CCCC(N(Cc2ccccc2)C(=O)c2ccc3ccccc3c2)C1)c1cccc(OCCN2CCOCC2)c1` (stereo not shown) [compound 44] the figure was 4%.
With `O=C(Nc1ccccc1)N(CC1CCCC(N(Cc2ccccc2)C(=O)C(c2ccccc2)c2ccccc2)C1)c1cccc(OCCN2CCOCC2)c1` (stereo not shown) [compound 46], the “Rabbit Colon % Inh” value came out at 32%.
Still for that read-out and setting: with `O=C(Nc1ccccc1)N(CC1CCCC(N(Cc2cccc(Cl)c2)C(=O)C(Cl)(Cl)Cl)C1)c1cccc(OCCN2CCOCC2)c1` (stereo not shown) [compound 47] the figure was 23%; with `O=C(Nc1ccccc1)N(CC1CCCC(N(Cc2cccc(Cl)c2)C(=O)c2cc(C(F)(F)F)cc(C(F)(F)F)c2)C1)c1cccc(OCCN2CCOCC2)c1` (stereo not shown) [compound 49], 37%; with `O=C(Nc1ccccc1)N(CC1CCCC(N(Cc2cccc(Cl)c2)C(=O)c2ccc(-c3ccccc3)cc2)C1)c1cccc(OCCN2CCOCC2)c1` (stereo not shown) [compound 50], 32%.
With `COc1cccc(C(=O)N(Cc2cccc(Cl)c2)C2CCCC(CN(C(=O)Nc3ccccc3)c3cccc(OCCN4CCOCC4)c3)C2)c1` (stereo not shown) [compound 51], the “Rabbit Colon % Inh” value is listed as 73%.
Consider `CC(C)(C)C(=O)N(Cc1cccc(Cl)c1)C1CCCC(CN(C(=O)Nc2ccccc2)c2cccc(OCCN3CCOCC3)c2)C1` (stereo not shown) [compound 52], for which the “Rabbit Colon % Inh” value came out at 45%.
With `O=C(Nc1ccccc1)N(CC1CCCC(N(Cc2cccc(Cl)c2)C(=O)CCc2ccccc2)C1)c1cccc(OCCN2CCOCC2)c1` (stereo not shown) [compound 53], the “Rabbit Colon % Inh” value is recorded as 52%.
Same read-out and setting: with `O=C(Nc1ccccc1)N(CC1CCCC(N(Cc2cccc(Cl)c2)C(=O)c2ccc3ccccc3c2)C1)c1cccc(OCCN2CCOCC2)c1` (stereo not shown) [compound 54] the figure was 42%; with `O=C(Nc1ccccc1)N(CC1CCCC(N(Cc2cccc(Cl)c2)C(=O)c2cccc([N+](=O)[O-])c2)C1)c1cccc(OCCN2CCOCC2)c1` (stereo not shown) [compound 55], 48%.
On the same count and under the same terms, with `O=C(Nc1ccccc1)N(CC1CCCC(N(Cc2cccc(Cl)c2)C(=O)C(c2ccccc2)c2ccccc2)C1)c1cccc(OCCN2CCOCC2)c1` (stereo not shown) [compound 56] the figure was 27%.
Consider `O=C(Nc1ccccc1)N(CC1CCCC(N(Cc2cccc(F)c2)C(=O)C(Cl)(Cl)Cl)C1)c1cccc(OCCN2CCOCC2)c1` (stereo not shown) [compound 58], for which the “Rabbit Colon % Inh” value came out at 38%.
Take `O=C(Nc1ccccc1)N(CC1CCCC(N(Cc2ccc(Cl)c(Cl)c2)C(=O)C(Cl)(Cl)Cl)C1)c1cccc(OCCN2CCOCC2)c1` (stereo not shown) [compound 59]: the “Rabbit Colon % Inh” value is reported as 23%.
The same measure, in the same setting: with `COc1cccc(CN(C(=O)C(Cl)(Cl)Cl)C2CCCC(CN(C(=O)Nc3ccccc3)c3cccc(OCCN4CCOCC4)c3)C2)c1` (stereo not shown) [compound 61] the figure was 55%.
With `O=C(Nc1ccccc1)N(CC1CCCC(N(Cc2cccc(C(F)(F)F)c2)C(=O)C(Cl)(Cl)Cl)C1)c1cccc(OCCN2CCOCC2)c1` (stereo not shown) [compound 62], the “Rabbit Colon % Inh” value was found to be 58%.
Still for that read-out and setting: with `O=C(Nc1ccccc1)N(CC1CCCC(N(Cc2ccc(Cl)cc2)C(=O)C(Cl)(Cl)Cl)C1)c1cccc(OCCN2CCOCC2)c1` (stereo not shown) [compound 63] the figure was 55%; with `O=C(Nc1ccccc1)N(CC1CCCC(N(Cc2cccc3ccccc23)C(=O)C(Cl)(Cl)Cl)C1)c1cccc(OCCN2CCOCC2)c1` (stereo not shown) [compound 64], 32%.
Same read-out and setting: with `O=C(Nc1ccccc1)N(CC1CCCC(N(Cc2cccc(Cl)c2Cl)C(=O)C(Cl)(Cl)Cl)C1)c1cccc(OCCN2CCOCC2)c1` (stereo not shown) [compound 66] the figure was 39%; with `O=C(Nc1ccccc1)NC1CCCC(CN(C(=O)Nc2ccccc2)c2cccc(OCCN3CCOCC3)c2)C1` (stereo not shown) [compound 69], 0%.
`O=C(NC1CCCC(CN(C(=O)Nc2ccccc2)c2cccc(OCCN3CCOCC3)c2)C1)c1ccco1` (stereo not shown) [compound 70]: the “Rabbit Colon % Inh” value came to 0%.
Still for that read-out and setting: with `O=C(Nc1ccccc1)N(CC1CCCC(NS(=O)(=O)c2ccc3ccccc3c2)C1)c1cccc(OCCN2CCOCC2)c1` (stereo not shown) [compound 71] the figure was 43%.

Still in this test, the particulars now being: rabbit colon membranes; read-out: Rabbit Colon % Inh.
Turning to `O=C(Nc1ccccc1)N(c1cccc(OCCN2CCOCC2)c1)C1CCC(CN(Cc2cccc(Cl)c2)C(=O)C(Cl)(Cl)Cl)C1` (stereo not shown) [compound 39], the inhibition is 4%.
Regarding `O=C(Nc1ccccc1)N(CC1CCCC(N(Cc2ccccc2)C(=O)Nc2ccccc2)C1)c1cccc(OCCN2CCOCC2)c1` (stereo not shown) [compound 40], the inhibition amounted to 11%.
For `O=C(Nc1ccccc1)N(CC1CCCC(N(Cc2ccccc2)C(=O)CCc2ccccc2)C1)c1cccc(OCCN2CCOCC2)c1` (stereo not shown) [compound 43], the inhibition was 74%.
For the compound `O=C(Nc1ccccc1)N(CC1CCCC(N(Cc2ccccc2)C(=O)c2cccc([N+](=O)[O-])c2)C1)c1cccc(OCCN2CCOCC2)c1` (stereo not shown) [compound 45], the inhibition worked out at 67%.
The same measure, in the same setting: with `O=C(Nc1ccccc1)N(CC1CCCC(N(Cc2ccccc2)C(=O)c2ccco2)C1)c1cccc(OCCN2CCOCC2)c1` (stereo not shown) [compound 48] the figure was 67%; with `O=C(Nc1ccccc1)N(CC1CCCC(N(Cc2ccccc2)S(=O)(=O)c2ccc3ccccc3c2)C1)c1cccc(OCCN2CCOCC2)c1` (stereo not shown) [compound 57], 15%.
As for `O=C(Nc1ccccc1)N(CC1CCCC(N(Cc2cc(Cl)cc(Cl)c2)C(=O)C(Cl)(Cl)Cl)C1)c1cccc(OCCN2CCOCC2)c1` (stereo not shown) [compound 60], the inhibition stood at 65%.
`O=C(Nc1ccccc1)N(CC1CCCC(N(Cc2ccccc2)C(=O)C(Cl)(Cl)Cl)C1)c1cccc(OCCN2CCOCC2)c1` (stereo not shown) [compound 67]: the inhibition came to 75%.
Same read-out and setting: with `O=C(Nc1ccccc1)N(CC1CCCC(N(Cc2ccccn2)C(=O)C(Cl)(Cl)Cl)C1)c1cccc(OCCN2CCOCC2)c1` (stereo not shown) [compound 68] the figure was 73%; with `O=C(Nc1ccccc1)N(CC1CCCC(NC(=O)C(Cl)(Cl)Cl)C1)c1cccc(OCCN2CCOCC2)c1` (stereo not shown) [compound 72], 40%.

The same test, now with this note: rabbit colon membranes; read-out: Rabbit Colon IC50.
Broadly, the IC50 is the concentration that gives 50% inhibition. `O=C(Nc1ccccc1)N(CC1CCCC(N(Cc2ccccc2)C(=O)CCc2ccccc2)C1)c1cccc(OCCN2CCOCC2)c1` (stereo not shown) [compound 43]: the IC50 was 0.73 µM.
`O=C(Nc1ccccc1)N(CC1CCCC(N(Cc2ccccc2)C(=O)c2cccc([N+](=O)[O-])c2)C1)c1cccc(OCCN2CCOCC2)c1` (stereo not shown) [compound 45]: the IC50 is 1.16 µM.
The same measure, in the same setting: with `O=C(Nc1ccccc1)N(CC1CCCC(N(Cc2ccccc2)C(=O)c2ccco2)C1)c1cccc(OCCN2CCOCC2)c1` (stereo not shown) [compound 48] the figure was 0.656 µM; with `COc1cccc(C(=O)N(Cc2cccc(Cl)c2)C2CCCC(CN(C(=O)Nc3ccccc3)c3cccc(OCCN4CCOCC4)c3)C2)c1` (stereo not shown) [compound 51], 0.65 µM.
Still for that read-out and setting: with `O=C(Nc1ccccc1)N(CC1CCCC(N(Cc2cc(Cl)cc(Cl)c2)C(=O)C(Cl)(Cl)Cl)C1)c1cccc(OCCN2CCOCC2)c1` (stereo not shown) [compound 60] the figure was 0.66 µM; with `O=C(Nc1ccccc1)N(CC1CCCC(N(Cc2ccccc2)C(=O)C(Cl)(Cl)Cl)C1)c1cccc(OCCN2CCOCC2)c1` (stereo not shown) [compound 67], 0.957 µM; with `O=C(Nc1ccccc1)N(CC1CCCC(N(Cc2ccccn2)C(=O)C(Cl)(Cl)Cl)C1)c1cccc(OCCN2CCOCC2)c1` (stereo not shown) [compound 68], 0.66 µM.

The values are drawn from patent US7112586B2, “Substituted diamine derivatives useful as motilin antagonists” (Ortho-McNeil Pharmaceutical, Inc., priority 2000, dated 2006).
